{"source": "patent US6806267B1", "about": "“Apoptosis-inducing compounds” (priority 1998, dated 2004)", "key": {"[1]": {"molecular_target": "T1, peripheral-type benzodiazepine receptor (PBR) (Homo sapiens, UniProt P30536)", "T1 construct": "Cell homogenates (50 μg protein) were incubated with 0.5-50 nM [^3H]; PK 11195; endogenous in cells; host or cells: HL-60 cell homogenate", "T1 sequence (P30536 whole entry)": "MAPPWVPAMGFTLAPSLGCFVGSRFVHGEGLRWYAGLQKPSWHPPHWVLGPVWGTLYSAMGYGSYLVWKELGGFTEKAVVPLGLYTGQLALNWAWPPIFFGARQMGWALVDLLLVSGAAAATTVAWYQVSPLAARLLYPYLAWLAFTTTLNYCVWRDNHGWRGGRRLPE", "experiment": "Radioligand binding assay, inhibition of [^3H]PK 11195 binding to HL-60 homogenates", "settings": "HL-60 homogenates, 2 nM [^3H]PK 11195; mean±SEM; read-out: Inhibition of [^3H]PK 11195 binding to the PBR, Ki value", "protocol": "HL-60 cells were harvested by centrifugation at 600 g for 5 min and washing in phosphate-buffered saline. The resulting cell pellet was homogenised in 50 mM Tris/HCl buffer, pH 7.4 (2 ml), using an Ultraturrax homogeniser (10 sec) and then passed 5 times through a 21 gauge needle. Cell homogenates (50 μg protein) were incubated with 0.5-50 nM [^3H] PK 11195 in 50 mM Tris/HCl buffer, pH 7.4 (incubation buffer), in a total volume of 0.5 ml on ice. Total and non-specific/non-saturable binding in each case was determined in the absence and presence of 10 μM unlabelled PK 11195 respectively. All samples were incubated in triplicate for 60 min. The incubation mixtures were then filtered and counted as previously described (O'Beirne, et al., 1988). When testing the potency of a compound to inhibit [^3H] PK 11195 binding, samples were incubated with 2 nM [3H] PK 11195 and various concentrations (0.1 nM to 1 μM) of compound and subsequently treated exactly as above. The resulting Ki values were then generated by the use of the computer programs EBDA and LIGAND.\nThe amount of radioactivity bound in the presence of the displacer was expressed as a percentage of control bonding and the values represent the mean±SEM of triplicate determinations from one representative experiment performed at least twice. The Ki values were obtained as described in Methods section."}, "[2]": {"system": "normal bone marrow progenitor cells", "format": "cell-based, human", "settings": "10 μM, 72 hours; for colonies scored, mean of 10 normal bone marrow samples: colonies scored after 14 days", "protocol": "Bone Marrow samples from donor patients were suspended in RPMI and heparin. Approximately 5 mls of Lympoprep was poured into a sterilin and the bone marrow sample was gently layered on top. The sample was centrifuged at 1800 g for 25 min, brake at 2. Following centrifugation, the buffy coat layer which contained the mononucleur fraction was gently removed using a sterile pasteur pipette and was transferred to a fresh tube. Approximately 10 mls of RPMI was added and the sample was centrifuged at 1800 g for 10 minutes, brake at 9. The supernatant was removed and the wash repeated. The pellet was resuspended in approximately 2 mls of RPMI. 20 μl was removed from the sample, mixed with 380 μl of ethidium bromide/acridine orange mix.(each at 100 μg/ml in PBS, 1:1 v/v). Ethidium bromide and acridine orange are fluorescent dyes which bind DNA. Acridine orange intercalates into DNA giving it a green appearance. Ethidium bromide is taken up by non-viable cells only. This dye also intercalates into the DNA, making it appear orange. The cells were counted under a fluorescent microscope and the volume of cells was adjusted to obtain 4×10^6 cells per ml. Cells were divided into 2 flasks and treated with 0.5% (v/v) ethanol or 10 μM PBOX-6. 100 μl was taken from each flask and added to 1.9 mls of culture media (0.58 ml methylcellulose, 0.55 ml FCS, 0.18 ml BSA, 0.21 ml RPMI, 5 U/ml of granulocytoe monocyte-colony stimulating factor (GM-CSF) and 20 U/ml of erythropoietin (EPO). Tubes were mixed by vortexing and allowed to stand for 1 min before adding 0.5 ml into each of three wells of a 4 well dish. 0.5 ml of sterile water was added to the fourth well. Plates were incubated at 37° C. for 14 days. After 14 days, colonies were scored. A colony is scored as a cluster containing >40 cells, which originates form one stem cell. […]"}, "JNK1 and JNK2": {"system": "JNK1 and JNK2", "experiment": "Western blot of JNK activation in Lama 84 and KYO.1 cells", "format": "cell-based, human", "settings": "Lama 84 and KYO.1, 45 minutes"}, "p42-44": {"system": "p42-44", "experiment": "Western blot of p42-44 activation in K562 cells", "format": "cell-based, human"}, "[3]": {"system": "tyrosine phosphorylated proteins", "experiment": "Protein tyrosine phosphorylation Western blot, Jurkat cells", "format": "cell-based, human", "protocol": "Jurkat and CML cells (5×10^6) were harvested by centrifuigation at 1800 g for 10 min at 4° C. After being washed once with ice-cold phosphate-buffered saline, the cell pellet was suspended in 100 μl of ice-cold lysis buffer (50 mM Tris-HCl, pH 8.0, 150 mM NaCl, 0.1%.SDS, 1% Triton X-100, 1 mM sodium 1 mM phenylmethylsulfonyl, 10 ng/ml leupeptin and 10 ng/ml of aprotinin). The cells were left to sit on ice for 10 min and then centrifuged at 20,000 g for 20 min. The resulting supernatant was stored at −70° C. until measurement of tyrosine phosphorylation. Protein determination was measured by using the Bradford assay. Equal amounts of protein were resolved by SDS-polyacrylamide gel electrophoresis in 15% gels and transferred onto polyvinylidene difluoride (PVDF) membranes. Membranes were blocked with Tris-buffered saline with Tween 20 (10 mM Tris-HCl, pH 8.0, 150 mM NaCl, 0.05% Tween 20) containing 1% w/v BSA and probed with anti-phosphotyrosine antibody. Blots were washed, incubated with goat anti-mouse IgG peroxidase conjugate and developed by ECL according to the manufacturer's recommendations."}}, "note": "Read-outs that look alike come from different tables or passages of the source.", "data": [{"molecule": "CN(C)C(=O)OC1=C(c2cccc3ccccc23)Oc2ccccc2-n2cccc21", "note": "[PBOX-6, 7-((Dimethylcarbamoyl)oxy)-6-(1-naphthyl)pyrrolo[2,1-d][1,5]benzoxazepine]", "values": [{"measurement": "Ki", "setting": "[1]", "result": "6.7 ± 1.7", "unit": "nM"}, {"measurement": "effect on normal bone marrow progenitor cells", "setting": "[2]", "result": "no significant effect"}, {"measurement": "colonies scored, mean of 10 normal bone marrow samples", "setting": "[2]", "result": 17}, {"measurement": "colonies scored, mean of 10 normal bone marrow samples", "setting": "[2]; listed as PBOX 6", "result": 16.9}, {"measurement": "activation of JNK1 and JNK2", "setting": "JNK1 and JNK2", "result": "found to be activated"}, {"measurement": "activation of p42-44", "setting": "p42-44", "result": "not activated"}, {"measurement": "protein tyrosine phosphorylation", "setting": "[3]", "result": "time and dose-dependent decrease in protein tyrosine phosphorylation"}]}]}
